This is an account of results in patent US8759535B2, “Substituted fused imidazole derivatives, pharmaceutical compositions, and methods of use thereof” (High Point Pharmaceuticals, LLC, priority 2010, dated 2014).

Structures are written as SMILES. Counter-ions that a name gives are not always drawn.

In the first test the test system is HMOX1. Briefly: HMOX1 Protein Assay (immunostaining of HO-1 in NHLF cells, GE InCell 1000). To be noted: Homo sapiens, fold change above DMSO treated cells, 3 μM compound (asterisk), 16 h. It is filed as cell-based. In short, it runs like this: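 Fold induction of HO-1 over vehicle, normally at 5 μM compound (asterisk marks 3 μM), in 0.8% DMSO medium. Normal human lung fibroblasts were treated 16 h, then paraformaldehyde-fixed, anti-HO-1/Alexa 488 stained with Hoechst, and read by high-content imaging.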
One may read the fold induction as the signal under treatment as a multiple of the control signal. On to `Cn1c(Nc2nc3ccc(Cl)cc3s2)nc2cc(C(=O)NCCS(=O)(=O)CCO)ccc21` [Example 278, 2-(6-Chloro-benzothiazol-2-ylamino)-1-methyl-1H-benzoimidazole-5-carboxylic acid [2-(2-hydroxy-ethanesulfonyl)-ethyl]-amide], for which the fold induction at 3 µM worked out at 36.5. Still for that read-out and setting: the value for `CN(C)CCCNC(=O)c1ccc2c(c1)nc(Nc1nc3ccc(Cl)cc3s1)n2C` [Example 349, 2-(6-Chloro-benzothiazol-2-ylamino)-1-methyl-1H-benzoimidazole-5-carboxylic acid (3-dimethylamino-propyl)-amide] was 29.

`CN(C)C(=O)[C@H](CCCCN)NC(=O)c1ccc2c(c1)nc(Nc1nc3ccc(C(F)(F)F)cc3s1)n2C` [Example 369, 1-Methyl-2-(6-trifluoromethyl-benzothiazol-2-ylamino)-1H-benzoimidazole-5-carboxylic acid ((S)-5-amino-1-dimethylcarbamoyl-pentyl)-amide hydrochloride] gave a fold induction at 3 µM of 22.4. Still for that read-out and setting: the value for `CNCCn1c(Nc2nc3ccc(OC(F)(F)F)cc3s2)nc2cc(C(=O)NCCOCCO)ccc21` [Example 239, 1-(2-Methylamino-ethyl)-2-(6-trifluoromethoxy-benzothiazol-2 ylamino)-1H-benzoimidazole-5-carboxylic acid[2-(2-hydroxy-ethoxy)-ethyl]-amide hydrochloride] was 10. Regarding `Cn1c(Nc2nc3ccc(C(F)(F)F)cc3s2)nc2cc(C(=O)NCC(=O)N3CC[C@H](O)C3)ccc21` [Example 403, 1-Methyl-2-(6-trifluoromethyl-benzothiazol-2-ylamino)-1H-benzoimidazole-5-carboxylic acid [2-((S)-3-hydroxy-pyrrolidin-1-yl)-2-oxo-ethyl]-amide], the fold induction at 3 µM turned out to be 24.8. The same measure, in the same setting: the value for `C[C@@H](NC(=O)c1ccc2c(c1)nc(Nc1nc3ccc(Cl)cc3s1)n2C)C(=O)N1CCN(C)CC1` [Example 469, 2-(6-Chloro-benzothiazol-2-ylamino)-1-methyl-1H-benzoimidazole-5-carboxylic acid [(R)-1-methyl-2-(4-methyl-piperazin-1-yl)-2-oxo-ethyl]-amide] was 26.1; that for `CC(O)CCNC(=O)c1ccc2c(c1)nc(Nc1nc3ccc(C(F)(F)F)cc3s1)n2C` (centres unmarked) [Example 216, 1-Methyl-2-(6-trifluoromethyl-benzothiazol-2-ylamino)-1H-benzoimidazole-5-carboxylic acid (3-hydroxy-butyl)-amide] was 31.6.

The test is the same for the next values; noted with them: Homo sapiens, fold change above DMSO treated cells, 5 μM compound, 16 h.
Take `CN(C)CC1CCN(C(=O)CNC(=O)c2ccc3c(c2)nc(Nc2nc4ccc(OC(F)(F)F)cc4s2)n3C)CC1` [Example 458, 1-Methyl-2-(6-trifluoromethoxy-benzothiazol-2-ylamino)-1H-benzoimidazole-5-carboxylic acid [2-(4-dimethylaminomethyl-piperidin-1-yl)-2-oxo-ethyl]-amide]: the fold induction at 5 µM amounted to 68.5. Still for that read-out and setting: the value for `CN(C)CC1CCN(C(=O)CNC(=O)c2ccc3c(c2)nc(Nc2nc4ccc(Cl)cc4s2)n3C)CC1` [Example 459, 2-(6-Chloro-benzothiazol-2-ylamino)-1-methyl-1H-benzoimidazole-5-carboxylic acid [2-(4-dimethylaminomethyl-piperidin-1-yl)-2-oxo-ethyl]-amide] was 42; that for `Cn1c(Nc2nc3ccc(C(F)(F)F)cc3s2)nc2cc(C(=O)O)ccc21` [Example 24, 1-Methyl-2-(6-trifluoromethyl-benzothiazol-2-ylamino)-1H-benzoimidazole-5-carboxylic acid] was 20.7. Consider `CN1CCCCC1CNC(=O)c1ccc2c(c1)nc(Nc1nc3ccc(Cl)cc3s1)n2C` (centres unmarked) [Example 318, 2-(6-Chloro-benzothiazol-2-ylamino)-1-methyl-1H-benzoimidazole-5-carboxylic acid (1-methyl-piperidin-2-ylmethyl)-amide], for which the fold induction at 5 µM came to 11.9.

In turn, `COCCn1c(Nc2nc3ccc(Cl)cc3s2)nc2cc(C(=O)NCC(=O)N3CCC(O)CC3)ccc21` [Example 438, 2-(6-Chloro-benzothiazol-2-ylamino)-1-(2-methoxy-ethyl)-1H-benzoimidazole-5-carboxylic acid [2-(4-hydroxy-piperidin-1-yl)-2-oxo-ethyl]-amide] yielded a fold induction at 5 µM of 25.9. As to `CCn1c(Nc2nc3ccc(C(F)(F)F)cc3s2)nc2cc(C(=O)NCCSC)ccc21` [Example 185, 1-Ethyl-2-(6-trifluoromethyl-benzothiazol-2-ylamino)-1H-benzoimidazole-5-carboxylic acid (2-methylsulfanyl-ethyl)-amide], the fold induction at 5 µM stood at 11.2.

Regarding `Cn1c(Nc2nc3ccc(OC(F)(F)F)cc3s2)nc2cc(C(=O)NC[C@@H](O)CO)ccc21` [Example 281, 1-Methyl-2-(6-trifluoromethoxy-benzothiazol-2-ylamino)-1H-benzoimidazole-5-carboxylic acid ((R)-2,3-dihydroxy-propyl)-amide], the fold induction at 5 µM came out at 35.6. The same measure, in the same setting: the value for `Cn1c(Nc2nc3ccc(Cl)cc3s2)nc2cc(C(=O)N[C@H]3CCNC3)ccc21` [Example 291, 2-(6-Chloro-benzothiazol-2-ylamino)-1-methyl-1H-benzoimidazole-5-carboxylic acid (S)-pyrrolidin-3-ylamide hydrochloride] was 17. Same read-out and setting: the value for `COCCn1c(Nc2nc3ccc(OC(F)(F)F)cc3s2)nc2cc(C(=O)O)ccc21` [Example 166, 1-(2-Methoxy-ethyl)-2-(6-trifluoromethoxy-benzothiazol-2-ylamino)-1H-benzoimidazole-5-carboxylic acid] was 22.4; that for `CCn1c(Nc2nc3ccc(Oc4cccnc4)cc3s2)nc2cc(C(=O)NCCOC)ccc21` [Example 191, 1-Ethyl-2-[6-(pyridin-3-yloxy)-benzothiazol-2-ylamino]-1H-benzoimidazole-5-carboxylic acid (2-methoxy-ethyl)-amide] was 33.8; that for `CN(C)CC(=O)N1CCC(CNC(=O)c2ccc3c(c2)nc(Nc2nc4ccc(Cl)cc4s2)n3C)CC1` [Example 314, 2-(6-Chloro-benzothiazol-2-ylamino)-1-methyl-1H-benzoimidazole-5-carboxylic acid [1-(2-dimethylamino-acetyl)-piperidin-4-ylmethyl]-amide] was 79.7. Still for that read-out and setting: the value for `Cn1c(Nc2nc3ccc(Cl)cc3s2)nc2cc(C(=O)NCCN3CCC(F)(F)CC3)ccc21` [Example 335, 2-(6-Chloro-benzothiazol-2-ylamino)-1-methyl-1H-benzoimidazole-5-carboxylic acid [2-(4,4-difluoro-piperidin-1-yl)-ethyl]-amide] was 18.9; that for `CNCCOCCNC(=O)c1ccc2c(c1)nc(Nc1nc3ccc(OC(F)(F)F)cc3s1)n2C` [Example 271, 1-Methyl-2-(6-trifluoromethoxy-benzothiazol-2-ylamino)-1H-benzoimidazole-5-carboxylic acid [2-(2-methylamino-ethoxy)-ethyl]-amide hydrochloride] was 69.9. For `CSCCNC(=O)c1ccc2c(c1)nc(Nc1nc3ccc(S(C)(=O)=O)cc3s1)n2C` [Example 130, 2-(6-Methanesulfonyl-benzothiazol-2-ylamino)-1-methyl-1H-benzimidazole-5-carboxylic acid (2-methylsulfanyl-ethyl)-amide], the fold induction at 5 µM amounted to 5.3. The molecule `CNCCn1c(Nc2nc3ccc(Cl)cc3s2)nc2cc(C(=O)NCCOCCO)ccc21` [Example 240, 2-(6-Chloro-benzothiazol-2-ylamino)-1-(2-methylamino-ethyl)-1H-benzoimidazole-5-carboxylic acid [2-(2-hydroxy-ethoxy)-ethyl]-amide hydrochloride] showed a fold induction at 5 µM of 35.4.

`COC(=O)c1cc2nc(Nc3nc4ccc(OC(F)(F)F)cc4s3)n(C)c2cc1OC` [Example 61, 6-Methoxy-1-methyl-2-(6-trifluoromethoxy-benzothiazol-2-ylamino)-1H-benzoimidazole-5-carboxylic acid methyl ester]: the fold induction at 5 µM came to 12.1. `CCNC(=O)c1ccc2c(c1)nc(Nc1nc3cc(F)c(F)cc3s1)n2C` [Example 35, 2-(5,6-Difluoro-benzothiazol-2-ylamino)-1-methyl-1H-benzoimidazole-5-carboxylic acid ethylamide] yielded a fold induction at 5 µM of 12.4. In turn, `C[C@H](O)CNC(=O)c1ccc2c(c1)nc(Nc1nc3ccc(OC(F)(F)F)cc3s1)n2C` [Example 50, 1-Methyl-2-(6-trifluoromethoxy-benzothiazol-2-ylamino)-1H-benzoimidazole-5-carboxylic acid ((S)-2-hydroxy-propyl)-amide] had a fold induction at 5 µM of 11.1. For the molecule `Cn1c(Nc2nc3ccc(OC(F)(F)F)cc3s2)nc2cc(C(=O)NCCOCCC#N)ccc21` [Example 265, 1-Methyl-2-(6-trifluoromethoxy-benzothiazol-2-ylamino)-1H-benzoimidazole-5-carboxylic acid [2-(2-cyano-ethoxy)-ethyl]-amide], the fold induction at 5 µM amounted to 55.

Regarding `CNC(=O)c1ccc2c(c1)nc(Nc1nc3ccc(OC(F)(F)F)cc3s1)n2C` [Example 1, 1-Methyl-2-(6-trifluoromethoxy-benzothiazol-2-ylamino)-1H-benzoimidazole-5-carboxylic acid methyl amide], the fold induction at 5 µM is 19.4. Same read-out and setting: the value for `Cn1c(Nc2nc3ccc(Cl)cc3s2)nc2cc(C(=O)NCC(=O)NCCS(C)(=O)=O)ccc21` [Example 383, 2-(6-Chloro-benzothiazol-2-ylamino)-1-methyl-1H-benzoimidazole-5-carboxylic acid [(2-methanesulfonyl-ethylcarbamoyl)-methyl]-amide] was 16.4. On the same count and under the same terms, the value for `Cn1c(Nc2nc3ccc(OC(F)(F)F)cc3s2)nc2cc(C(=O)N3CCC(CCCO)CC3)ccc21` [Example 307, [4-(3-Hydroxy-propyl)-piperidin-1-yl]-[1-methyl-2-(6-trifluoromethoxy-benzothiazol-2-ylamino)-1H benzoimidazol-5-yl]-methanone] was 31.5.
